Test results published in ChEMBL document CHEMBL3352702, “Design, synthesis and in vitro antikinetoplastid evaluation of N-acylated putrescine, spermidine and spermine derivatives” (Bioorg Med Chem Lett, 2015).

What was measured:
Trypanosoma brucei = assay: Antikinetoplastid activity against Trypanosoma brucei gambiense assessed as parasite growth inhibition; type: functional, organism-based
Leishmania donovani = assay: Antikinetoplastid activity against Leishmania donovani LV9 […] amastigotes in mouse RAW264.7 cells assessed as viability measured 24 hrs by SYBR green assay; type: functional, organism-based; conditions: LV9, RAW264.7, 24 h
RAW264.7 = assay: Cytotoxicity against mouse RAW264.7 cells assessed as reduction in cell viability up to 100 uM; type: cell-based
[1] = Selectivity index, ratio of cytotoxicity against mouse RAW264.7 cells to IC50 for Trypanosoma brucei gambiense; type: toxicity, cell-based; conditions: read-out: Selectivity Index

SMILES | IC50 (Trypanosoma brucei) | IC50 (Leishmania donovani) | Activity (RAW264.7) | selectivity ratio [1]
CC(C)(C)OC(=O)NCCCCN(CCC#N)C(=O)OC(C)(C)C | > 100 µM | > 100 µM | Non-toxic | 
COCC(=O)NCCCCNC(=O)OC(C)(C)C | > 100 µM | > 100 µM | Non-toxic | 
COCC(=O)NCCCCN.Cl | > 100 µM | > 100 µM | Non-toxic | 
COCC(=O)NCCCN(CCCCNC(=O)OC(C)(C)C)C(=O)OC(C)(C)C | > 100 µM | > 100 µM | Non-toxic | 
CC(=O)NCCSCC(=O)NCCCNCCCCN.Cl | 14.8 µM | 70.8 µM | Non-toxic | 
CC(=O)NCCSCC(=O)NCCCCNCCCN.Cl | 5.75 µM | > 100 µM | Non-toxic | 
CCCCCCCCCCCCCCCCOP(=O)([O-])OCC[N+](C)(C)C [MILTEFOSINE] |  | 10.2 µM |  | 
N=C(N)c1ccc(OCCCCCOc2ccc(C(=N)N)cc2)cc1 [PENTAMIDINE] | 0.011 µM | 4.21 µM |  | 

More lines, main results first:

IC50 (Trypanosoma brucei) | SMILES | IC50 (Leishmania donovani) | Activity (RAW264.7) | selectivity ratio [1]
> 100 µM | CC(C)(C)OC(=O)NCCCCNCCCNC(=O)OC(C)(C)C | > 100 µM | Non-toxic | 
11.5 µM | CC(=O)NCCC(=O)NCCSCC(=O)NCCCNCCCCN.Cl | > 100 µM | Non-toxic | 
> 100 µM | CC(C)(C)OC(=O)NCCCCN | > 100 µM | Non-toxic | 
11.6 µM | CC(C)(C)OC(=O)NCCCCN(CCCN)C(=O)OC(C)(C)C | > 100 µM | Non-toxic | 
> 100 µM | COCC(=O)NCCCNCCCCN.Cl | 5.47 µM | Non-toxic | 
> 100 µM | COCC(=O)NCCCCN(CCCNC(=O)OC(C)(C)C)C(=O)OC(C)(C)C | > 100 µM | Non-toxic | 
15.6 µM | COCC(=O)NCCCCNCCCN.Cl | 50 µM | Non-toxic | 
> 100 µM | COCC(=O)N(CCCCNC(=O)OC(C)(C)C)CCCNC(=O)OC(C)(C)C | > 100 µM | Non-toxic | 
> 100 µM | COCC(=O)N(CCCN)CCCCN.Cl | > 100 µM | Non-toxic | 
2.98 µM | CC(=O)NCCC(=O)NCCSCC(=O)NCCCNCCCCNCCCN.Cl | > 100 µM | Non-toxic | 
1.92 µM | CC(=O)NCCSCC(=O)NCCCNCCCCNCCCN.Cl | > 100 µM | Non-toxic | > 52
